# Laboratory results as given in patent publication US5112515A, “Phenothrin shampoo” (Euroceltique, S.A., priority 1990, dated 1992).
# System: Bacteria, moulds and yeasts
# Assay: Efficacy of Antimicrobial Preservatives in Pharmaceutical Products (British Pharmacopoeia 1988), overall outcome
# Assay type: cell-based
# Conditions: specification of British Pharmacopoeia 1988
# Source text: The test procedure conformed with the specifications described in the 1988 British Pharmacopoeia--"Efficacy of Antimicrobial Preservatives in Pharmaceutical Products".
# Aliquots of microbial suspensions of Pseudomonas aeruoinosa NC18 8626, Stahylococcus aureus NCTC 10788, Candida albicans NCPF 3179, and Asperoillus niger IMI 149007 were introduced into separate containers of the composition of Example 1 to achieve a final concentration of approximately 1×10^6 cfu/ml. The same volume of inoculum was simultaneously introduced into separate equivalent quantities of 0.1% peptone water to be used as controls. The inoculated product was stored in the dark at 20°-25° C.
# 1 ml aliquots of the inoculated product were removed at 0, 6, 24 and 48 hours, 7, 14 and 28 days. Each was added to 9 ml of 0.1% peptone water containing the following as preservative inactivating agents:
# A topical preparation is considered to be effectively preserved if the following criteria are met:
# Bacteria--the number of organisms recovered per ml is reduced by a factor of not less than 10^3 within 48 hours of challenge and no organism is recovered from 1 ml at 7 days and thereafter;
# Moulds and Yeasts--the number of organisms recovered per ml is reduced by a factor of not less than 10^2 within 14 days of challenge and there is no increase thereafter.
compound,measurement,value
"O=[N+]([O-])C(Br)(CO)CO [bronopol, 2-bromo-2-nitropropane-1,3,-diol]",Antimicrobial protection / antimicrobial properties of the shampoo,good antimicrobial protection
